The source of these data is publication PMC3856649 (Clinical cancer research : an official journal of the …, 2012).

Where “and” joins values, the source holds several entries; their conditions need not be identical. Equal values may be shown once.

Data set [1] deals with AAG. The settings on record: cited from earlier work.
The conditions of data set [2]: daily oral 150 mg/d in patients with cancer; cited from earlier work.
The target in data set [3] is HSA (Homo sapiens, UniProt P02768). Description: Equilibrium dialysis. Format: binding.
Data set [4] can be described thus: Clinical plasma pharmacokinetics in patients with advanced breast cancer. Format: in vivo, human. The settings on record: for Tmax: po, 20 mg.
Data set [5] has as its system NOTCH1. Description: In vitro Notch cellular assay. Format: cell-based, human.
The subject of data set [6] is plasma proteins.
In data set [7] the test system is plasma proteins. The source holds these as a separate data set.
Data set [8] in a line: in vitro. The settings on record: human, human plasma, pH 7.2.
Data set [9] deals with human α1-acid glycoprotein (AAG) (Homo sapiens, UniProt P02763). Kind of data set: Equilibrium dialysis, binding in isolated AAG solution. The settings on record: for mean Fu: total drug 500 ng/mL (1,065 nmol/L); for RO4929097 fraction unbound estimated from Equation (A): nK 1.0 × 10^6 L/mol; for maximum binding concentration (nP) of AAG: estimate ± SE.
Where [10] appears, read: given alone, 20 mg orally, median (interquartile range), n = 8.
Setting [11] is: single oral dose of 20 mg in 8 patients.
[12] abbreviates: Homo sapiens, U2OS, 24 h, read-out: inhibition of cellular Notch activity.

human α1-acid glycoprotein (AAG), sequence (P02763 19-201): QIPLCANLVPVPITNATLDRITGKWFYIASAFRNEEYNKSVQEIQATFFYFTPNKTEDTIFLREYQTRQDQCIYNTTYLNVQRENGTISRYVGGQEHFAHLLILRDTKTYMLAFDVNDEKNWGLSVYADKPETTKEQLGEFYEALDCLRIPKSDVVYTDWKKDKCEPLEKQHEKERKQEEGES
HSA, sequence (P02768 25-609): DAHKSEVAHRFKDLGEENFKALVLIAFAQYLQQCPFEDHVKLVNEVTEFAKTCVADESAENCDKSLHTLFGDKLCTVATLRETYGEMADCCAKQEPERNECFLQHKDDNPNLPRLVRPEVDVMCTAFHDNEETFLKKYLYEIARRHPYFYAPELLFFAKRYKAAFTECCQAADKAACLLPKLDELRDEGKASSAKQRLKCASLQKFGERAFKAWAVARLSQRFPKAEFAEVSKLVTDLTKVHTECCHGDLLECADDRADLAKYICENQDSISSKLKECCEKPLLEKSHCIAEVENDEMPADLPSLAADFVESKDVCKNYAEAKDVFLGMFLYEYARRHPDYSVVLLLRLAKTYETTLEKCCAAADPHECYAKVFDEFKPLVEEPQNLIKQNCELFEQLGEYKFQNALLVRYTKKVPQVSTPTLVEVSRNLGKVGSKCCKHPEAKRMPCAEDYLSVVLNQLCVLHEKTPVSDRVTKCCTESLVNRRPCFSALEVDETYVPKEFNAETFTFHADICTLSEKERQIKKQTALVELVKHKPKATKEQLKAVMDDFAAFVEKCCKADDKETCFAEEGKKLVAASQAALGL

On to `CS(=O)(=O)c1ccc(C(=O)Nc2ccc(Cl)c(-c3ccccn3)c2)c(Cl)c1` [GDC-0449], for which the Kd in data set [1] (read-out: Kd for AAG, in vitro equilibrium dialysis) is 1500 nM. Further, in data set [2], the “average steady-state plasma concentration of total GDC-0449” value is on record as “approximately 25 μmol/L” and the “unbound drug levels as % of the total drug” value is “less than 1%”.

As for `CC(C)(C(=O)NCC(F)(F)C(F)(F)F)C(=O)N[C@@H]1C(=O)Nc2ccccc2-c2ccccc21` [RO4929097, RO4929097 (γ-secretase inhibitor)], in [3], the affinity, expressed as Kd, was 90.9 µM.

For the compound `CC(C)(C(=O)NCC(F)(F)C(F)(F)F)C(=O)N[C@@H]1C(=O)Nc2ccccc2-c2ccccc21` [RO4929097], in [4] (co-administered with GDC-0449), the “Decrease in average systemic exposure to total RO4929097” value is reported as 8.3 fold and the “Decrease in average unbound RO4929097 exposure” value was determined as 1.7 fold. For the same compound, in [4] (setting [10]), the “Unbound RO4929097 AUC0–24h” value is reported as 52.8 (33.2–64.9) nmol/L h and the “Unbound RO4929097 Cmax” value is given as 4.3 (2.7–5.6) nmol/L. Moreover, the AUC(0-t) in data set [4] (human, plasma, oral, Total RO4929097 AUC0–24h, in combination with GDC-0449 150 mg orally, median (interquartile range), n = 8) was 0.723 µM·h. The Tmax in data set [4] (human, plasma, Total RO4929097 Tmax, given alone, 20 mg orally, median (interquartile range), n = 8) turned out to be 2.5 h. Moreover, the Tmax in data set [4] (human, plasma, Unbound RO4929097 Tmax, given alone, 20 mg orally, median (interquartile range), n = 8) amounted to 1.5 h. Moreover, in data set [4] (single oral dose of 20 mg), the “Interindividual variability of total RO4929097 AUC0-24h (max/min)” value is 16 fold and up to 16 fold; the “Interindividual variability of total RO4929097 Cmax (max/min)” value was 15 fold; the “Interindividual variability of unbound RO4929097 AUC0-24h (max/min)” value was determined as 4 fold; the “Interindividual variability of unbound RO4929097 Cmax (max/min)” value amounted to 3 fold. In [4] (single oral dose of 20 mg), the “Unbound RO4929097 AUC0-24h, range among patients” value lay in the range of 28.1 to 113.0 nmol·h/L and the “Unbound RO4929097 Cmax, range among patients” value lay in the range of 1.9 to 6.1 nmol/L. For the same compound, in data set [4] (setting [11]), the “Coefficient variation of AUC0-24h, total RO4929097” value came to 99% and the “Coefficient variation of AUC0-24h, unbound RO4929097” value worked out at 49%. For the same compound, in data set [5] (AAG 0.5, 1.4, […], total RO4929097 500 and 5,000 nmol/L), the “RO4929097 Notch-inhibitory activity in presence of AAG” value is given as “significantly reduced”. For the same compound, in data set [5] (setting [12]), the inhibition at 0.05 µM was 2.1%, the inhibition at 0.5 µM was 62% and the inhibition at 5 µM was 73%. Moreover, the IC50 in [5] (Homo sapiens, U2OS, read-out: unbound RO4929097 concentration for 50% inhibition of the maximum Notch activity (IC50)) stood at 109 nM. The “bound in human plasma” value in data set [6] was greater than 97%. In addition, in data set [7] (during the treatment in individual patient), the “intraindividual variability in RO4929097 fraction unbound” value is “up to 5 fold”. Also, the “interindividual variability in RO4929097 fraction unbound” value in [7] (patients, alone or in combination with GDC-0449) is reported as “up to 10 fold”. The same compound returned a fraction unbound at 24 h in data set [8] of 0.047. In addition, in data set [9] (AAG 0.2 mg/mL), the “mean Fu” value is given as 19.0%. Also, in [9] (AAG 0.5 mg/mL), the “RO4929097 fraction unbound estimated from Equation (A)” value is listed as 8%. Besides, in [9] (AAG 1.4 mg/mL, Equation (C), GDC-0449 0 μmol/L), the “maximum binding concentration (nP) of AAG” value is 23.1 µmol/L and 23.1 ± 0.9 µmol/L. The “maximum binding concentration (nP) of AAG” value in data set [9] (AAG 1.4 mg/mL, GDC-0449 5 μmol/L) was 25.3 ± 1.1 µmol/L. The “maximum binding concentration (nP) of AAG” value in data set [9] (AAG 1.4 mg/mL, GDC-0449 25 μmol/L) is 34.9 ± 2.0 µmol/L. Moreover, the “RO4929097 fraction unbound estimated from Equation (A)” value in data set [9] (AAG 1.4 mg/mL) was 3%. Moreover, the “mean Fu” value in data set [9] (AAG […]) is listed as 1.1%. For the same compound, the “total binding constant (nK) for AAG” value in data set [9] (Equation (A), Fu versus protein concentration, nonlinear regression) was 1e+06 L/mol and 1.1e+06 L/mol.

For the compound `Cc1ccc(NC(=O)c2ccc(CN3CCN(C)CC3)cc2)cc1Nc1nccc(-c2cccnc2)n1` [imatinib], in data set [1], the “binding affinity for AAG (Ka)” value is 1.7e+06 L/mol.
